Assay results taken from PMC4231100, “Cerebral Artery Alpha-1 AR Subtypes: High Altitude Long-Term Acclimatization Responses” (PLoS ONE, 2014).
Structures can show the parent of a compound that is named as a salt.

Key:
[1] = biological target: T1, α1D-AR (Ovis aries, UniProt A0ACI6RHM3); experiment: functional antagonism (KB) of phenylephrine-induced contraction in isolated arteries
T1 construct: gene ADRA1D
T1 sequence (A0ACI6RHM3 1-564): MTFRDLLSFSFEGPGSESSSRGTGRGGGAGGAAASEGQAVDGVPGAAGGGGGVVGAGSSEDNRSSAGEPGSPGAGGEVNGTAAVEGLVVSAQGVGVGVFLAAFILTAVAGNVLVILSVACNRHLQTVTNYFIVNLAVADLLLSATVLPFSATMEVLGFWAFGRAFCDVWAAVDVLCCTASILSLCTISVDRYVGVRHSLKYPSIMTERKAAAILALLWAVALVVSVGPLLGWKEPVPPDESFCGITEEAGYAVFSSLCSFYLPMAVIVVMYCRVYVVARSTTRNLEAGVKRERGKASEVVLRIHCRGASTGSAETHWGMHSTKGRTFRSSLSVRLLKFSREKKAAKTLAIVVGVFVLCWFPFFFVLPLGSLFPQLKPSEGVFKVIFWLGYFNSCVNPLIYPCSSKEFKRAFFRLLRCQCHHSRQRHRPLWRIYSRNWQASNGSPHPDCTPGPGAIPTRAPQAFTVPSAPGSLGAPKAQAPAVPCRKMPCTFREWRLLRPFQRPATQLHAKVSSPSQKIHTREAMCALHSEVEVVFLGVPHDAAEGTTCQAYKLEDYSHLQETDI

[2] = biological target: T2, α1A-AR (Ovis aries, UniProt A0ACI6NWI5); experiment: as above
T2 construct: gene ADRA1A
T2 sequence (A0ACI6NWI5 1-466): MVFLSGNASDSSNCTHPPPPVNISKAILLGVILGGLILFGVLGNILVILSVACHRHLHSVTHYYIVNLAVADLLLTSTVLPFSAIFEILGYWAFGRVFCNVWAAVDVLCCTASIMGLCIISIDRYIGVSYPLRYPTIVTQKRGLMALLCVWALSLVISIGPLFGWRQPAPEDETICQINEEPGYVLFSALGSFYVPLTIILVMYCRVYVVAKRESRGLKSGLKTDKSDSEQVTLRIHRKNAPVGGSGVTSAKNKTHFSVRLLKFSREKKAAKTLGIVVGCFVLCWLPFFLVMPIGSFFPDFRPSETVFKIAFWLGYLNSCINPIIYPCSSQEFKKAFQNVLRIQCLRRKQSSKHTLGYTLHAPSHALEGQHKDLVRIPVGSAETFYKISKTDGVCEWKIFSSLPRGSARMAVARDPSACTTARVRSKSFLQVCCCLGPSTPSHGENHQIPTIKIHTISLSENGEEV

Row | Structure (SMILES) | Kb [1] [nM] | Kb [2] [nM]
1 | COc1ccccc1N1CCN(CCN2C(=O)CC3(CCCC3)CC2=O)CC1 [BMY, 8-(2-[4-(2-Methoxyphenyl)-1-piperazinyl]ethyl)-8-azaspiro(4.5)decane-7,9-dione] | 6.7 | 
2 | COc1cccc(OC)c1OCCNCC1COc2ccccc2O1 (centres unmarked) [WB, 2-([2,6-Dimethoxyphenoxyethyl]a-minomethyl)-1,4-benzodioxane hydrochloride] |  | 11
